Results: EPA's ToxRefDB 2

What was measured:
rat [1] = settings: Subchronic oral toxicity in rodents, sprague dawley, Gavage/Intubation, dose end: 12 week, group: systemic, systemic / clinical chemistry / albumin / albumin + systemic / clinical chemistry / alkaline phosphatase (alp/alk) / alkaline phosphatase (…
rat [2] = settings: Chronic toxicity; wistar; Oral; Feed; dose end: 2 year; group: systemic; systemic / hematology / hemoglobin (hgb) / hemoglobin (hgb) + systemic / in life observation / body weight / body weight + systemic / organ …
dog [3] = settings: Sub-acute repeat dose toxicity; other; Oral; Feed; dose end: 4 week; group: systemic; systemic / in life observation / body weight / body weight gain + systemic / in life observation / food consumption / food consumption
rat [4] = settings: Combined chronic toxicity/carcinogenicity, other, Oral, Feed, dose end: 104 week, group: systemic
dog [5] = settings: Chronic toxicity; beagle; Oral; Feed; dose end: 2 year; group: systemic; systemic / in life observation / body weight / body weight gain + systemic / in life observation / food consumption / food consumption + …
mouse [6] = settings: Carcinogenicity, cd1, Oral, Feed, dose end: 104 week, group: systemic
rat [7] = settings: Subchronic oral toxicity in rodents, wistar, Feed, dose end: 13 week, group: systemic
rat [8] = settings: Chronic toxicity; sprague dawley (CD); Oral; Feed; dose end: 104 week; group: systemic; systemic / in life observation / body weight / body weight + systemic / in life observation / body weight / body weight gain
rat [9] = settings: Multigenerational reproductive toxicity study, sprague dawley, Oral, Feed, dose end: 2 generation
mouse [10] = settings: Subchronic oral toxicity in rodents, cd1, Feed, dose end: 90 day, group: systemic
[11] = systemic / clinical chemistry / thyroxine (t4) / thyroxine (t4), total + systemic / pathology microscopic / liver / cellular alteration + …
[12] = systemic / clinical chemistry / cholesterol / cholesterol + systemic / clinical chemistry / gamma glutamyl transpeptides (gtp) / gamma …
[13] = systemic / hematology / anemia / anemia - hemolytic + systemic / hematology / hemoglobin (hgb) / hemoglobin (hgb) + systemic / hematology / …
[14] = group: offspring, systemic / in life observation / body weight / offspring (pup) weight
[15] = group: parental, systemic / pathology gross / lung / foci + systemic / pathology microscopic / kidney / dilatation + systemic / pathology microscopic / …
[16] = systemic / pathology microscopic / liver / hypertrophy
[17] = systemic / pathology microscopic / liver / hypertrophy + systemic / organ weight / liver / absolute + systemic / organ weight / liver / …

With `CC1=C(/C=C/C(C)=C/C=C/C(C)=C\C(=O)O)C(C)(C)CCC1` [13-cis Retinoic acid] the LEL (rat [1]) was 4 mg/kg/day, the LOAEL (rat [1]) was > 40 mg/kg/day and the NEL (rat [1]) was < 4 mg/kg/day. For the same compound, the NOAEL (rat [1]) was ≥ 40 mg/kg/day.
In the case of `COC(=O)c1c(Cl)c(Cl)c(C(=O)OC)c(Cl)c1Cl` [Chlorthal-dimethyl], the LEL (rat [2]) is reported as 80 mg/kg/day, the LOAEL (rat [2]) is reported as > 80 mg/kg/day and the NEL (rat [2]) is reported as 20 mg/kg/day. For the same compound, the NOAEL (rat [2]) was ≥ 80 mg/kg/day, the LEL (dog [3]) was 250 mg/kg/day and the LOAEL (dog [3]) was > 1250 mg/kg/day. For the same compound, the NEL (dog [3]) was 50 mg/kg/day, the NOAEL (dog [3]) was ≥ 1250 mg/kg/day and the LEL (rat [4]; [11]) was 10 mg/kg/day. For the same compound, the LOAEL (rat [4]; [11]) was 10 mg/kg/day, the NOAEL (rat [4]; [11]) was 1 mg/kg/day and the NEL (rat [4]; systemic / pathology microscopic / eye / atrophy + systemic / pathology microscopic / liver / cellular alteration + systemic / pathology …) was 1 mg/kg/day. The LEL (dog [5]) was 100 mg/kg/day, the LOAEL (dog [5]) was > 100 mg/kg/day and the NEL (dog [5]) was 15 mg/kg/day. The NOAEL (dog [5]) was ≥ 100 mg/kg/day, the LOAEL (mouse [6]; [12]) was 1140 mg/kg/day and the NEL (mouse [6]; [12]) was 15 mg/kg/day. The NOAEL (mouse [6]; [12]) was 510 mg/kg/day, the LEL (mouse [6]; systemic / clinical chemistry / gamma glutamyl transpeptides (gtp) / gamma glutamyl transpeptides (gtp) + systemic / clinical chemistry / …) was 150 mg/kg/day and the LOAEL (rat [7]; [13]) was > 2500 mg/kg/day. For the same compound, the NEL (rat [7]; [13]) was 5 mg/kg/day, the NOAEL (rat [7]; [13]) was ≥ 2500 mg/kg/day and the LEL (rat [7]; systemic / hematology / polychromasia / polychromasia) was 17 mg/kg/day. For the same compound, the LEL (rat [8]) was 1000 mg/kg/day, the LOAEL (rat [8]) was 1000 mg/kg/day and the NEL (rat [8]) was 50 mg/kg/day. For the same compound, the NOAEL (rat [8]) was 50 mg/kg/day, the LEL (rat [9]; [14]) was 233 mg/kg/day and the LOAEL (rat [9]; [14]) was 233 mg/kg/day. For the same compound, the NEL (rat [9]; [14]) was 45 mg/kg/day, the NOAEL (rat [9]; [14]) was 45 mg/kg/day and the LOAEL (rat [9]; [15]) was 233 mg/kg/day. It also gave an NOAEL (rat [9]; [15]) of 45 mg/kg/day, an LEL (rat [9]; group: parental, systemic / pathology microscopic / lung / infiltration cellular + systemic / pathology microscopic / thymus / involution) of 45 mg/kg/day and an LEL (mouse [10]; [16]) of 1050 mg/kg/day. The LOAEL (mouse [10]; [16]) was 1240 mg/kg/day, the NEL (mouse [10]; [17]) was 517 mg/kg/day and the NOAEL (mouse [10]; [17]) was 406 mg/kg/day.
